{
  "source": "patent US12324927B2",
  "about": "“Methods and systems for photodynamic therapy calculations” (THE TRUSTEES OF THE UNIVERSITY OF PENNSYLVANIA, priority 2018, dated 2025)",
  "key": {"[1]": {"system": "radiation-induced fibrosarcoma (RIF) tumors", "experiment": "Photofrin-mediated PDT of RIF tumors: explicit dosimetry and tumor regrowth (cure index)", "format": "in vivo, mice", "details": "for Photofrin post: in tumor after PDT; for Photofrin post / Photofrin pre / [ROS]rx, mea / [ROS]rxcal / CI (cure index, 1−k/kctr): per mouse; for Photofrin pre: in tumor before PDT, 5 mg/kg i.v., 24 h, 5 mg/kg; for [ROS]rx, mea / [ROS]rxcal: 3 mm; for [ROS]rx, mea: measured [^3O2](t); for [ROS]rxcal: model-calculated [^3O2]; for CI (cure index, 1−k/kctr): tumor growth up to 14 days", "description": "Radiation-induced fibrosarcomas (RIF) cells were cultured and injected in the right shoulder regions of 6-8 weeks old female C3H mice (NCI-Frederick, Frederick, MD). 30 μl were injected at a concentration of 1×10^7 cells/ml, as described previously.^8-11 Animals were under the care of the University of Pennsylvania Laboratory Animal Resources. All studies were approved by the University of Pennsylvania Institutional Animal Care and Use Committee. The fur of the treatment region was clipped prior to cell inoculation, and the treatment area was depilated with Nair (Church & Dwight Co., Inc., Ewing, NJ) at least 24 hours prior to measurements and treatment. Tumors were treated when they were 3˜5 mm in diameter. Mice were given a chlorophyll-free (alfalfa-free) rodent diet (Harlan laboratories Inc., Indianapolis, IN) at least 10 days prior to treatment to eliminate the fluorescence signal from chlorophyll-breakdown products, which have a similar range to the photosensitizer spectra obtained in this study. The photosensitizer fluorescence was used to determine the in vivo concentrations in this study, using methods described previously.^7-9\nTreatment delivery was done using an optical fiber with a microlens attachment coupled to a diode laser with the appropriate wavelength for each photosensitizer. A 630 nm laser (Biolitec, Inc., East Longmeadow, MA, USA) was used for Photofrin after a 18˜24 hours drug-light interval. The in-air fluence rate (ϕair) is defined as the calculated irradiance determined by the laser power divided by the treatment area (1 cm diameter spot size). The in-air fluence was calculated by multiplying the in-air fluence rate by the treatment time. RIF tumor-bearing mice with no photosensitizer and no light excitation were used as controls (n=5).\nPhotofrin (Pinnacle Biologics, Chicago, Illinois) at a dosage of 5 mg/kg was injected through the mouse tail vein as described previously.^12,13 At a 24-h drug-light interval, superficial irradiation of the tumor was performed with a 630-nm laser (Biolitec AG., A-1030, Vienna). A microlens fiber was coupled to the laser to irradiate the tumor uniformly. Animals were assigned to four light dose groups, and each group was comprised of 2 to 3 subgroups with different ϕ. There were a total of 5 treatment groups: 50 J/cm^2 at 150 mW/cm^2, 250 J/cm^2 at 75 mW/cm^2, 135 J/cm^2 at 75 mW/cm^2, 75 J/cm^2 at 75 mW/cm^2, and 100 J/cm^2 at 150 mW/cm^2. Tumor-bearing mice that received neither light irradiation nor Photofrin were used as controls.\nFollowing the drug-light interval of 18˜24 hours, measurements of light fluence rate, photosensitizer concentration and [O2] were performed. Photofrin fluorescence spectra was obtained using a custom-made multi-fiber contact probe before and after PDT.^14 The probe is connected to a 405 nm laser (Power Technology Inc., Little Rock, AR, USA) for the fluorescence excitation of Photofrin and a multichannel CCD spectrograph (InSpectrum, Princeton Instruments, Trenton, NJ, USA) for the collection of the spectra. The in vivo photosensitizer concentration was obtained by comparing the in vivo Photofrin spectra with those of phantoms with known photosensitizer concentrations. The attenuation of the fluorescence signal due to the light absorption and scattering by tissues was corrected by applying an empirical correction factor described elsewhere. The accuracy of in vivo measurements was validated by ex vivo measurements in separate mice.^15.16\nThe in vivo tissue oxygen partial pressure pO2 was measured during PDT treatment using a phosphorescence-based ^3O2 probe (OxyLite Pro, Oxford Optronix, Oxford, United Kingdom). A bare-fiber-type probe (NX-BF/O/E, Oxford Optronix, Oxford, United Kingdom) was placed inside the tumor at a 3 mm depth from the treatment surface. […]"}, "[2]": {"experiment": "Photofrin concentration and PDT dose at pleural cavity sites measured by fluorescence with 4-channel PDT dose dosimeter during Photofrin-mediated pleural PDT", "parameters": "species or system human", "details": "in vivo, all measurement sites, 630 nm, 60 J cm^−2"}},
  "note": "Several values for one entry are separate records, joined by “and”; a condition that tells them apart may be missing. Equal values may be shown once. Entries after “also recorded” stand apart in the source; their conditions may differ.",
  "data": [
    {"substance": "Photofrin", "values": [
      {"measurement": "Photofrin post", "setting": "[1]; 75.00 mW/cm2 for 1500.00 s", "value": "2.80 µM and 3.70 µM and 3.01 µM"},
      {"measurement": "Photofrin post", "setting": "[1]; 75.00 mW/cm2 for 1800.00 s", "value": "4.90 µM and 3.35 µM and 3.00 µM and 3.50 µM"},
      {"measurement": "Photofrin post", "setting": "[1]; 75.00 mW/cm2 for 3333.00 s", "value": "3.02 µM and 2.44 µM and 2.48 µM and 2.20 µM"},
      {"measurement": "Photofrin post", "setting": "[1]; 150.00 mW/cm2 for 333.00 s", "value": "3.07 µM and 1.19 µM and 2.80 µM and 2.30 µM"},
      {"measurement": "Photofrin post", "setting": "[1]; 150.00 mW/cm2 for 666.00 s", "value": "2.50 µM and 3.54 µM and 4.88 µM and 3.49 µM"},
      {"measurement": "Photofrin pre", "setting": "[1]; 75.00 mW/cm2 for 1500.00 s", "value": "6.50 µM and 6.70 µM and 6.00 µM"},
      {"measurement": "Photofrin pre", "setting": "[1]; 75.00 mW/cm2 for 1800.00 s", "value": "6.90 µM and 6.80 µM and 5.20 µM and 5.67 µM"},
      {"measurement": "Photofrin pre", "setting": "[1]; 75.00 mW/cm2 for 3333.00 s", "value": "6.47 µM and 4.20 µM and 4.54 µM and 4.50 µM"},
      {"measurement": "Photofrin pre", "setting": "[1]; 150.00 mW/cm2 for 333.00 s", "value": "6.80 µM and 3.07 µM and 5.84 µM and 5.10 µM"},
      {"measurement": "Photofrin pre", "setting": "[1]; 150.00 mW/cm2 for 666.00 s", "value": "6.40 µM and 7.20 µM and 7.84 µM and 6.79 µM"},
      {"measurement": "[ROS]rx, mea", "setting": "[1]; 75.00 mW/cm2 for 1500.00 s", "value": "0.82 mM and 0.73 mM and 0.65 mM"},
      {"measurement": "[ROS]rx, mea", "setting": "[1]; 75.00 mW/cm2 for 1800.00 s", "value": "1.13 mM and 0.96 mM and 1.00 mM and 1.10 mM"},
      {"measurement": "[ROS]rx, mea", "setting": "[1]; 75.00 mW/cm2 for 3333.00 s", "value": "1.40 mM and 1.41 mM and 1.39 mM and 1.20 mM"},
      {"measurement": "[ROS]rx, mea", "setting": "[1]; 150.00 mW/cm2 for 333.00 s", "value": "0.27 mM (2×) and 0.21 mM and 0.38 mM"},
      {"measurement": "[ROS]rx, mea", "setting": "[1]; 150.00 mW/cm2 for 666.00 s", "value": "0.77 mM and 0.79 mM and 0.88 mM and 0.78 mM"},
      {"measurement": "[ROS]rxcal", "setting": "[1]; 75.00 mW/cm2 for 1500.00 s", "value": "0.89 mM and 0.93 mM and 0.87 mM"},
      {"measurement": "[ROS]rxcal", "setting": "[1]; 75.00 mW/cm2 for 1800.00 s", "value": "1.39 mM and 1.24 mM and 1.07 mM and 1.09 mM"},
      {"measurement": "[ROS]rxcal", "setting": "[1]; 75.00 mW/cm2 for 3333.00 s", "value": "2.33 mM and 1.73 mM and 1.89 mM and 1.87 mM"},
      {"measurement": "[ROS]rxcal", "setting": "[1]; 150.00 mW/cm2 for 333.00 s", "value": "0.29 mM and 0.235 mM and 0.39 mM and 0.32 mM"},
      {"measurement": "[ROS]rxcal", "setting": "[1]; 150.00 mW/cm2 for 666.00 s", "value": "0.69 mM and 0.81 mM (2×) and 0.8 mM"},
      {"measurement": "CI (cure index, 1−k/kctr)", "setting": "[1]; 75.00 mW/cm2 for 1500.00 s", "value": "0.20 and 0.22 and 0.13"},
      {"measurement": "CI (cure index, 1−k/kctr)", "setting": "[1]; 75.00 mW/cm2 for 1800.00 s", "value": "1.00 and 0.56 and 0.64 and 0.82"},
      {"measurement": "CI (cure index, 1−k/kctr)", "setting": "[1]; 75.00 mW/cm2 for 3333.00 s", "value": 1.00},
      {"measurement": "CI (cure index, 1−k/kctr)", "setting": "[1]; 150.00 mW/cm2 for 333.00 s", "value": "0.03 and 0.00 and 0.01 and 0.06"},
      {"measurement": "CI (cure index, 1−k/kctr)", "setting": "[1]; 150.00 mW/cm2 for 666.00 s", "value": "0.15 and 0.25 and 0.42 and 0.27"},
      {"measurement": "PDT dose threshold", "setting": "[1]; this study", "value": 439, "unit": "mM J/cm^2"},
      {"measurement": "photobleaching of Photofrin during PDT treatment", "setting": "[2]", "value": "no significant photobleaching; also recorded: did not change significantly; also recorded: negligible photobleaching"}
    ]}
  ]
}
